Measured values reported in US20240166652A1, “MODULATORS OF THE INTEGRATED STRESS PATHWAY” (Calico Life Sciences LLC, priority 2017, published 2024).

tested on: ATF4 luciferase reporter in HEK293T cells; assay: ATF4-Luc assay (ATF4 luciferase reporter, tunicamycin-treated HEK293T cells); type: cell-based, human; conditions: Homo sapiens, HEK-293T; HEK293T cells carrying the ATF4 luciferase reporter, 1 μg/mL tunicamycin, 7 hours

`Cc1cc(OCC(=O)NC23CC(NC(=O)COc4ccc(Cl)c(F)c4)(C2)C3)n(C)n1` [Compound 385, 2-(4-chloro-3-fluorophenoxy)-N-(3-{2-[(1,3-dimethyl-1H-pyrazol-5-yl)oxy]acetamido}bicyclo[1.1.1]pentan-1-yl)acetamide] and `Cc1cc(OCC(=O)NC23CC(NC(=O)COc4ccc(Cl)c(F)c4)(C2)C3)cc(C)n1` [Compound 220, 2-(4-chloro-3-fluorophenoxy)-N-(3-{2-[(2,6-dimethylpyridin-4-yl)oxy]acetamido}bicyclo[1.1.1]pentan-1-yl)acetamide] fall in the same range of EC50: 500 to 2000 nM for the first, 500 to 2000 nM for the second.

`Cc1cc(OCC(=O)NC23CCC(NC(=O)COc4ccc(Cl)c(F)c4)(CC2)C[C@@H]3O)cc(C)c1C` [Compound 503, 2-(4-chloro-3-fluorophenoxy)-N-{(3S)-3-hydroxy-4-[2-(3,4,5-trimethylphenoxy)acetamido]bicyclo[2.2.2]octan-1-yl]acetamide] and `Cc1cc(OCC(=O)NC23CCC(NC(=O)COc4ccc(Cl)c(F)c4)(CC2)[C@@H](O)C3)no1` [Compound 665, 2-(4-chloro-3-fluorophenoxy)-N-[(2S)-2-hydroxy-4-{2-[(5-methyl-1,2-oxazol-3-yl)oxy]acetamido}bicyclo[2.2.2]octan-1-yl]acetamide] fall in the same range of EC50: 10 to 50 nM for the first, 10 to 50 nM for the second.

Compared with `O=C(COc1ccc(Cl)c(F)c1)NC12CC(N(CCO)C(=O)COc3ccc(Cl)c(F)c3)(C1)C2` [Compound 190, 2-(4-chloro-3-fluorophenoxy)-N-{3-[2-(4-chloro-3-fluorophenoxy)acetamido]-bicyclo[1.1.1]pentan-1-yl}-N-(2-hydroxyethyl)acetamide], `O=C(COc1ccc(Cl)c(F)c1)NC12CCC(NC(=O)COc3ccc(Cl)c(F)c3)(CC1)[C@@H](O)[C@H]2Br` (racemic) [Compound 571, rac-N,N′-[(2S,3R)-2-bromo-3-hydroxybicyclo[2.2.2]octane-1,4-diyl]bis[2-(4-chloro-3-fluorophenoxy)acetamide]] is lower in EC50: 500 to 2000 nM for the first, 10 to 50 nM for the second. The second is the more potent here.

Compared with `O=C(COc1ccc(Cl)c(F)c1)NC12CCC(NC(=O)COc3ncnc4sccc34)(CC1)[C@@H](O)C2` [Compound 514, 2-(4-chloro-3-fluorophenoxy)-N-[(3S)-3-hydroxy-4-{2-[(thieno[2,3-d]pyrimidin-4-yl)oxy]acetamido}bicyclo[2.2.2]octan-1-yl]acetamide], `O=C(COc1ccc(Cl)c(F)c1)NC12CCC(NC(=O)COc3cccnn3)(CC1)[C@@H](O)C2` [Compound 806, 2-(4-chloro-3-fluorophenoxy)-N-[(3S)-3-hydroxy-4-{2-[(pyridazin-3-yl)oxy]acetamido}bicyclo[2.2.2]octan-1-yl]acetamide] is higher in EC50: 10 to 50 nM for the first, 500 to 2000 nM for the second.

`O=C(COc1ccc(C(F)(F)F)c(F)c1)NC12CCC(NC(=O)COc3ccc4c(c3)OC(F)(F)O4)(CC1)[C@@H](O)C2` [Compound 773, 2-[(2,2-difluoro-2H-1,3-benzodioxol-5-yl)oxy]-N-[(2S)-4-{2-[3-fluoro-4-(trifluoromethyl)phenoxy]acetamido}-2-hydroxybicyclo[2.2.2]octan-1-yl]acetamide] and `O=C(COc1ccc(OC(F)(F)F)cc1)NC12CCC(NC(=O)COc3ccc4c(c3)OC(F)(F)O4)(CC1)[C@@H](O)C2` [Compound 780, 2-[(2,2-difluoro-2H-1,3-benzodioxol-5-yl)oxy]-N-[(2S)-2-hydroxy-4-{2-[4-(trifluoromethoxy)phenoxy]acetamido}bicyclo[2.2.2]octan-1-yl]acetamide] cannot be ordered by EC50: under 10 nM for the first, under 10 nM for the second.

`O=C(COc1ccc(Cl)cc1)NC12CC(NC(=O)COc3cccc(F)c3)(C1)C2` [Compound 119, 2-(4-chlorophenoxy)-N-{3-[2-(3-fluorophenoxy)acetamido]-bicyclo[1.1.1]pentan-1-yl}acetamide] and `O=C(CCc1ccc(Cl)cc1)NC12CC(NC(=O)COc3ccc(Cl)c(F)c3)(C1)C2` [Compound 102, N-{3-[2-(4-chloro-3-fluorophenoxy)acetamido]bicyclo[1.1.1]pentan-1-yl}-3-(4-chlorophenyl)propanamide] fall in the same range of EC50: 50 to 250 nM for the first, 50 to 250 nM for the second.

First: CN1Cc2ccc(OCC(=O)NC34CCC(NC(=O)COc5ccc(Cl)c(F)c5)(CC3)[C@@H](O)C4)cc2C1=O [Compound 695, 2-(4-chloro-3-fluorophenoxy)-N-[(2S)-2-hydroxy-4-{2-[(2-methyl-3-oxo-2,3-dihydro-1H-isoindol-5-yl)oxy]acetamido}bicyclo[2.2.2]octan-1-yl]acetamide]
Second: O=C(COc1ccc(Cl)c(F)c1)NC12CCC(NC(=O)COc3ccc(F)c(Cl)c3)(CC1)[C@@H](O)C2 [Compound 596, 2-(4-chloro-3-fluorophenoxy)-N-{(3S)-4-[2-(3-chloro-4-fluorophenoxy)acetamido]-3-hydroxybicyclo[2.2.2]octan-1-yl}acetamide]
The EC50 of the first is higher: 500 to 2000 nM for the first, under 10 nM for the second. The second is the more potent here.

`O=C(COc1ccc(Cl)c(F)c1)NC12CCC(NC(=O)COc3ccc(Cl)cc3)(CC1)[C@@H](O)C2` [Compound 454, 2-(4-chloro-3-fluorophenoxy)-N-{(3S)-4-[2-(4-chlorophenoxy)acetamido]-3-hydroxybicyclo[2.2.2]octan-1-yl}acetamide] and `O=C(COc1ccc(Cl)cc1)NC12CCC(NC(=O)COc3ccc(Cl)c(F)c3)(CC1)[C@@H](O)C2` [Compound 437, 2-(4-chloro-3-fluorophenoxy)-N-{(2S)-4-[2-(4-chlorophenoxy)acetamido]-2-hydroxybicyclo[2.2.2]octan-1-yl}acetamide] cannot be ordered by EC50: under 10 nM for the first, under 10 nM for the second.

First: CS(=O)(=O)c1ccc(OCC(=O)NC23CC(NC(=O)COc4ccc(Cl)c(F)c4)(C2)C3)cn1 [Compound 257, 2-(4-chloro-3-fluorophenoxy)-N-[3-(2-{[6-(methanesulfonyl)pyridin-3-yl]oxy}acetamido)bicyclo[1.1.1]pentan-1-yl]acetamide]
Second: O=C(COc1cncc(C(F)(F)F)c1)NC12CC(NC(=O)COc3ccc(Cl)c(F)c3)(C1)C2 [Compound 230, 2-(4-chloro-3-fluorophenoxy)-N-[3-(2-{[5-(trifluoromethyl)pyridin-3-yl]oxy}acetamido)bicyclo[1.1.1]pentan-1-yl]acetamide]
The EC50 of the first is higher: 250 to 500 nM for the first, 10 to 50 nM for the second. The second is the more potent here.

First: O=C(COc1ccc(Cl)c(F)c1)NC12CCC(NC(=O)COc3cc(F)c4cn[nH]c4c3)(CC1)[C@@H](O)C2 [Compound 738, 2-(4-chloro-3-fluorophenoxy)-N-[(3S)-4-{2-[(4-fluoro-1H-indazol-6-yl)oxy]acetamido}-3-hydroxybicyclo[2.2.2]octan-1-yl]acetamide]
Second: CN1C(=O)COc2c(OCC(=O)NC34CCC(NC(=O)COc5ccc(Cl)c(F)c5)(CC3)[C@@H](O)C4)cc(Cl)cc21 [Compound 752, 2-(4-chloro-3-fluorophenoxy)-N-[(2S)-4-{2-[(6-chloro-4-methyl-3-oxo-3,4-dihydro-2H-1,4-benzoxazin-8-yl)oxy]acetamido}-2-hydroxybicyclo[2.2.2]octan-1-yl]acetamide]
The EC50 of the first is lower: under 10 nM for the first, 500 to 2000 nM for the second. The first is the more potent here.

First: O=C(COc1ccc(Cl)c(F)c1)NC12CC(NS(=O)(=O)CCOc3ccccc3)(C1)C2 [Compound 488, 2-(4-chloro-3-fluorophenoxy)-N-{3-[(2-phenoxyethanesulfonyl)amino]bicyclo[1.1.1]pentan-1-yl}acetamide]
Second: O=C(COc1ccc(Cl)c(F)c1)NC12CC(NC(=O)OCCc3cccc(Cl)c3)(C1)C2 [Compound 165, 2-(3-chlorophenyl)ethyl {3-[2-(4-chloro-3-fluorophenoxy)-acetamido]bicyclo[1.1.1]pentan-1-yl}carbamate]
The EC50 of the first is higher: over 2000 nM for the first, 50 to 250 nM for the second. The second is the more potent here.
